Measured values taken from patent US4238620A, “Dibenz[b,f]oxepin and dibenzo[b,f]thiepin derivatives, process for preparation thereof, method of using the same, and compositions thereof” (priority 1978, dated 1980).
“Also recorded” adds a separate entry of the source.

Columns and labels:
[1] = cited from earlier work
[2] = cited from earlier work; remark: listed apart in the source
[3] = Safety index (UD50/ED50 or MED), separation of activity from ulcerogenicity; assay type: in vivo; settings: for separation of anti-inflammatory, analgesic and antipyretic activities from ulcerogenicity: FIGS. 1 and 2, vs indomethacin
Excerpt: (§1) From these diagrams, the correlation between the pharmacological activity of each compound and its ulcerogenicity and toxicity, i.e. the safety margin of each compound, can be clearly seen. In these Figures, the lines and letters have the following meanings:
(§2) The following conclusions can be drawn from Tables I to III and FIGS. 1 and 2. In the following description, the therapeutic index means LD50 /ED50 (or MED), and the safety index means UD50 /ED50 (or MED). The safety margin of a given compound is broader when it has larger therapeutic and or safety indices.

[4] = in vivo; settings: rat, po, rats, single administration, 7th day, read-out: LD50 Single
[5] = test system: Ultraviolet-induced erythema in guinea-pigs; experiment: Ultraviolet-induced erythema in guinea-pigs (UVE method), acute inflammation; assay type: in vivo; settings: Cavia porcellus, po, read-out: Anti-inflammatory activity ED50, acute inflammation, UVE
Experimental: (§3) (1) Effect on acute inflammation:
(b) Ultraviolet-induced erythema in guinea-pigs (UVE method)
The test was carried out according to the method described in Arch. Int. Pharmacodyn. Ther., 116, 261 (1958).

[6] = assay type: in vivo; settings: for therapeutic index compared with indomethacin: vs indomethacin
Excerpt: In the following description, the therapeutic index means LD50 /ED50 (or MED), and the safety index means UD50 /ED50 (or MED).

[7] = test system: Felt pellet-induced granuloma formation in rats; experiment: Felt pellet-induced granuloma formation in rats (FGF method), subacute and chronic inflammation; assay type: in vivo; settings: Rattus norvegicus, po, read-out: Minimum Effective Dose, subacute and chronic inflammation, FGF*
Experimental: (§4) (2) Effect on subacute and chronic inflammations:
(b) Felt pellet-induced granuloma formation in rats (FGF method)
The test was carried out according to the method described in J. Amer. Pharm. Assoc., 46, 515 (1957) and Chem. Pharm. Bull., 23, 1446 (1975).

[8] = test system: rats; experiment: Overall comparison of lethal toxicity (Test 5); assay type: in vivo; settings: for toxicity compared with indomethacin (in words): vs indomethacin
Experimental: (a) Single administration in rats
(§5) (b) Repeated administrations in rats
(§6) Test compounds were orally administered once daily for 5 days, and LD50 -value was calculated from the mortality on the 6th day.

[9] = test system: Carrageenin-induced hind paw oedema in rats; experiment: Carrageenin-induced hind paw oedema in rats (CAR method), acute inflammation; assay type: in vivo; settings: Rattus norvegicus, po, read-out: Anti-inflammatory activity ED50, acute inflammation, CAR
Experimental: as §3
(a) Carrageenin-induced hind paw oedema in rats (CAR method)
The test was carried out according to the method described in Proc. Soc. Exp. Biol. Med., 111, 544 (1962).

[10] = test system: Yeast-induced fever in rats; experiment: Yeast-induced fever in rats (YEF method), antipyretic activity; assay type: in vivo; settings: Rattus norvegicus, po, read-out: Antipyretic activity ED50, YEF
Experimental: TEST 3. ANTIPYRETIC ACTIVITY
Yeast-induced fever in rats (YEF method)
The test was carried out according to the method described in Arzneim. Forsch., 13, 338 (1963).

[11] = test system: AgNO3-induced joint pain in rats; experiment: AgNO3-induced joint pain in rats (AGP method), analgesic activity; assay type: in vivo; settings: Rattus norvegicus, po, read-out: Analgesic activity ED50, AGP
Experimental: (§7) TEST 2. ANALGESIC ACTIVITY
(a) AgNO3 -induced joint pain in rats (AGP method)
The test was carried out according to the method described in J. Pharmacol. Expt. Ther., 98, 19 (1950)

[12] = Overall comparison of anti-inflammatory, analgesic and antipyretic activities (Tests 1 to 3); assay type: in vivo, rats; guinea-pigs; settings: for anti-inflammatory, analgesic and antipyretic activities compared with indomethacin: vs indomethacin (compound 3)
Excerpt: as §1, §2

[13] = test system: adjuvant-induced arthritis in rats; experiment: Therapeutic activity on adjuvant-induced arthritis in rats (AAT method), subacute and chronic inflammation; assay type: in vivo; settings: Rattus norvegicus, po, read-out: Minimum Effective Dose, subacute and chronic inflammation, AAT*
Experimental: as §4
(a) Therapeutic activity on adjuvant-induced arthritis in rats (AAT method)
The test was carried out according to the method described in Brit. J. Pharmacol., 21, 127 (1963) and Japan J. Pharmacol., 23, 58 (1973).

[14] = in vivo; settings: rat, po, rats, once daily for 5 days, mortality on 6th day, read-out: LD50 Repeated
Experimental: as §5, §6

[15] = test system: Acetic acid (AcOH)-induced writhing in rats; experiment: Acetic acid (AcOH)-induced writhing in rats (ACW method), analgesic activity; assay type: in vivo; settings: Rattus norvegicus, po, read-out: Analgesic activity ED50, ACW
Experimental: as §7
(b) Acetic acid (AcOH)-induced writhing in rats (ACW method)
The test was carried out according to the method described in Arzneim. Forsch., 25, 1505 (1975).

[16] = test system: Gastrointestinal ulcer formation in fed rats; experiment: Gastrointestinal ulcer formation in fed rats (ulcerogenicity); assay type: in vivo
Experimental: (§8) TEST 4. ULCEROGENICITY IN GASTROINTESTINAL TRACT
(§9) Gastrointestinal ulcer formation in fed rats
(§10) The test was carried out according to the method described in Science, 170, 183 (1970).

[17] = as above; assay type: in vivo; settings: rat, in vivo, po, fed rats; read-out: UD50 (50% ulcer forming dose)
Experimental: as §8, §9, §10

SMILES | separation of anti-inflammatory, analgesic and antipyretic activities from ulcerogenicity [3] | ED50 [5] | therapeutic index compared with indomethacin [6] | minimal effective dose [7] | toxicity compared with indomethacin (in words) [8] | ED50 [9] | ED50 [10] | ED50 [11] | anti-inflammatory, analgesic and antipyretic activities compared with indomethacin [12] | minimal effective dose [13] | LD50 at 144 h [14] | ED50 [15] | TD50 [17] | other results
O=C(O)Cc1ccc2c(c1)CC(=O)c1ccccc1S2 [10,11-dihydro-10-oxodibenzo[b,f]thiepin-2-acetic acid] |  |  |  |  |  |  |  |  |  |  |  |  |  | anti-inflammatory activity relative to phenylbutazone [1]: 0.4 time; analgesic activity relative to aspirin [2]: equivalent to that of aspirin
Cc1ccc2c(c1)CC(=O)c1cc(C(C)C(=O)OCCOCCO)ccc1O2 (racemic) [compound E, 2-(2-Hydroxyethoxy)ethyl dl-2-(8-methyl-10,11-dihydro-11-oxodibenz[b,f]oxepin-2-yl)propionate] | more separated from ulcerogenicity in the gastrointestinal tract than in indomethacin; also recorded: Especially good separation | 1.41 mg/kg | far larger therapeutic indices than indomethacin | 2 mg/kg/day | far weaker than those of indomethacin | 3.61 mg/kg | 0.055 mg/kg | 3.8 mg/kg | equivalent or superior to those of indomethacin | 0.2 mg/kg/day | > 16 mg/kg | 0.27 mg/kg | 4.04 mg/kg | LD50 at 168 h [4]: 219 mg/kg; average safety and therapeutic indices compared with compound A ([6]; safety and therapeutic indices, vs compound A): comparable to those of compound A; breadth of safety margin compared with compound 1 ([6]; safety margin, vs compound 1): better; pharmacological activities compared with compound 1 ([12]; vs compound 1): equivalent to, or more potent, than those of compound 1; pharmacological activities compared with compound A ([12]; vs compound A): somewhat inferior to those of compound A; ulcerogenicity and toxicity compared with compound A ([16]; ulcerogenicity together with toxicity, vs compound A): weaker than those of compound A
Cc1ccc2c(c1)CC(=O)c1cc(C(C)C(=O)O)ccc1S2 (racemic) [compound C, dl-2-(8-Methyl-10,11-dihydro-11-oxodibenzo[b,f]thiepin-2-yl)propionic acid] | more separated from ulcerogenicity in the gastrointestinal tract than in indomethacin; also recorded: Especially good separation | 0.85 mg/kg | far larger therapeutic indices than indomethacin | 1 mg/kg/day | far weaker than those of indomethacin | 2.08 mg/kg | 0.015 mg/kg | 1.41 mg/kg | equivalent or superior to those of indomethacin | < 0.2 mg/kg/day | > 12 mg/kg | 0.84 mg/kg | 2.76 mg/kg | average safety index relative to compound 2 ([3]; UD50/ED50 (or MED), vs compound 2): about 4 times; average therapeutic index relative to compound 2 ([6]; LD50/ED50 (or MED), vs compound 2): more than 5 times; breadth of safety margin compared with compound 2 ([6]; safety margin, vs compound 2): far superior to compound 2; toxicity relative to compound 2 ([8]; fraction of that of compound 2): less than 1/6; pharmacological activities compared with compound 2 ([12]; vs compound 2): comparable or slightly inferior to those of compound 2; ulcerogenicity relative to compound 2 ([16]; fraction of that of compound 2): about 1/4
